Like-named read-outs stand apart in the source and are kept apart here. One block for each compound: values may come before it.
What was measured:
[1] = system: lectin pathway (MBL) in human serum; assay: Inhibition of activity of lectin pathway (MBL) in human serum (WIESLAB Complement System MBL Pathway kit); format: biochemical; conditions: 1% human serum
Experimental: The inhibition of the activity of the lectin pathway (MBL) in human serum by compounds was detected using a WIESLAB® Complement System MBL Pathway kit (SVAR, COMPLMP320). Test compounds were each serially diluted in a buffer (Diluent MP), and 1% human serum was incubated with the diluted compound solution for 15 min at room temperature. 100 μL of the mixture was added to a microplate and incubated at 37° C. for 60 min. The liquid in the wells was discarded, and the microplate was washed three times with a washing solution. A Conjugate antibody solution was added at 100 μL/well, and the resulting mixture was incubated for 30 min at 25° C. The liquid in the wells was discarded, and the microplate was washed three times with a washing solution; a substrate solution was added at 100 μL/well, and the resulting mixture was incubated for 30 min at 25° C.; the terminator was added at 50 μL/well, and the absorbance at 405 nm was detected within 30 min by using a microplate reader.

[2] = In vivo pharmacokinetic study in SD rats; conditions: 1 mg/kg, clear
Experimental: After adaptive feeding, the SPF SD rats were each subjected to a single administration of 1 mg/kg or 3 mg/kg of the compound of the present disclosure intragastrically or by tail vein bolus injection. Plasma was collected at specific time points after administration, and the concentration of the compound in plasma was detected by LC-MS/MS (AB Sciex Qtrap 4500).

[3] = Sprague-Dawley (SD), rat, plasma, IV, not fasting
[4] = Sprague-Dawley (SD), rat, plasma, IV, not fasting, read-out: Cmax
[5] = Sprague-Dawley (SD), rat, plasma, PO, fasting
[6] = Sprague-Dawley (SD), rat, plasma, PO, fasting, read-out: Cmax

Compound: C[C@H](NC(=O)C1C=C(c2ccc(F)cc2)CCN1)C(=O)N[C@@H]1CCc2nc(N)ccc21 (single isomer, unassigned) [Compound L064-IS-02]
IC50 [1]: 7.57 nM
AUC(0-t) [2, 3]: 15600 ± 5150 ng·h/mL
half-life [2, 3]: 4.18 ± 1.02 h
Cmax [2, 4]: 16000 ± 2070 ng/mL
AUC(0-t) [2, 5]: 2630 ± 245 ng·h/mL
half-life [2, 5]: 5.57 ± 1.46 h
Cmax [2, 6]: 875 ± 155 ng/mL

Compound: C[C@H](NC(=O)[C@@H]1C=C(c2ccc(Cl)cc2)CCN1)C(=O)N[C@@H]1CCc2nc(N)ccc21 (single isomer, unassigned) [Compound L066-IS-02]
IC50 [1]: 9.52 nM
AUC(0-t) [2, 3]: 17100 ± 4640 ng·h/mL
half-life [2, 3]: 4.51 ± 1.29 h
Cmax [2, 4]: 15900 ± 1070 ng/mL
AUC(0-t) [2, 5]: 3240 ± 233 ng·h/mL
half-life [2, 5]: 4.93 ± 0.51 h
Cmax [2, 6]: 1140 ± 164 ng/mL

Compound: C[C@H](NC(=O)[C@@H]1C=C(c2ccc(F)c(F)c2)CCN1)C(=O)N[C@@H]1CCc2nc(N)ccc21 (single isomer, unassigned) [Compound L069-IS-02]
IC50 [1]: 17.4 nM
AUC(0-t) [2, 3]: 20000 ± 3840 ng·h/mL
half-life [2, 3]: 3.39 ± 0.17 h
Cmax [2, 4]: 15700 ± 1130 ng/mL
AUC(0-t) [2, 5]: 6930 ± 968 ng·h/mL
half-life [2, 5]: 3.37 h
Cmax [2, 6]: 1190 ± 162 ng/mL

Compound: C[C@H](NC(=O)[C@@H]1C=C(c2ccc(F)cc2F)CCN1)C(=O)N[C@@H]1CCc2nc(N)ccc21 (single isomer, unassigned) [Compound L076-IS-02]
IC50 [1]: 11.6 nM
AUC(0-t) [2, 3]: 25900 ± 556 ng·h/mL
half-life [2, 3]: 5.88 ± 0.27 h
Cmax [2, 4]: 22500 ± 1030 ng/mL
AUC(0-t) [2, 5]: 6970 ± 1210 ng·h/mL
half-life [2, 5]: 4.29 ± 0.28 h
Cmax [2, 6]: 1350 ± 423 ng/mL

Compound: C[C@H](NC(=O)[C@H]1C[C@H](Cc2ccc(Cl)cc2)CN1)C(=O)NC1CCc2nc(N)ccc21 (stereo partly drawn) [Compound L003, (2R,4S)—N-((2S)-1-((2-amino-6,7-dihydro-5H-cyclopenta[b]pyridin-5-yl)amino)-1-oxopropan-2-yl)-4-(4-chlorobenzyl) pyrrolidine-2-carboxamide]
IC50 [1]: 5.17 nM
AUClast ([2]; IV, not fasting): 95060 ± 770 ng·h/mL
Cmax ([2]; IV, not fasting): 25400 ± 1940 ng/mL
T1/2 ([2]; IV, not fasting): 5.84 ± 0.55 h
AUClast ([2]; PO, fasting): 11167 ± 1986 ng·h/mL
Cmax ([2]; PO, fasting): 1777 ± 394 ng/mL
T1/2 ([2]; PO, fasting): 5.89 h

IC50 [1]: 4.06 nM
AUClast ([2]; IV, not fasting): 97054 ± 1914 ng·h/mL
Cmax ([2]; IV, not fasting): 26933 ± 1167 ng/mL
T1/2 ([2]; IV, not fasting): 12.0 ± 3.72 h
AUClast ([2]; PO, fasting): 11618 ± 919 ng·h/mL
Cmax ([2]; PO, fasting): 1777 ± 98.2 ng/mL
T1/2 ([2]; PO, fasting): 12.7 h
Compound: C[C@H](NC(=O)[C@H]1C[C@H](Cc2ccc(F)c(Cl)c2)CN1)C(=O)NC1CCc2nc(N)ccc21 (stereo partly drawn) [Compound L012, (2R,4S)—N-((2S)-1-((2-amino-6,7-dihydro-5H-cyclopenta[b]pyridin-5-yl)amino)-1-oxopropan-2-yl)-4-(3-chloro-4-fluorobenzyl) pyrrolidine-2-carboxamide]

IC50 [1]: 2.71 nM
AUClast ([2]; IV, not fasting): 89916 ± 4999 ng·h/mL
Cmax ([2]; IV, not fasting): 24633 ± 167 ng/mL
T1/2 ([2]; IV, not fasting): 7.81 ± 1.16 h
AUClast ([2]; PO, fasting): 13180 ± 3323 ng·h/mL
Cmax ([2]; PO, fasting): 1967 ± 568 ng/mL
T1/2 ([2]; PO, fasting): 12.5 h
Compound: C[C@H](NC(=O)[C@H]1C[C@H](Cc2cccc(Cl)c2)CN1)C(=O)NC1CCc2nc(N)ccc21 (stereo partly drawn) [Compound L014, (2R,4S)—N-((2S)-1-((2-amino-6,7-dihydro-5H-cyclopenta[b]pyridin-5-yl)amino)-1-oxopropan-2-yl)-4-(3-chlorobenzyl) pyrrolidine-2-carboxamide]

IC50 [1]: 6.08 nM
Compound: C[C@H](NC(=O)[C@H]1C[C@@H](c2cccc(F)c2F)CCN1)C(=O)NC1CCc2nc(N)ccc21 (stereo partly drawn) [Compound L048-IS-02, (2R,4S)-N-((2S)-1-((2-amino-6,7-dihydro-5H-cyclopenta[b]pyridin-5-yl)amino)-1-oxopropan-2-yl)-4-(2,3-difluorophenyl)piperidine-2-carboxamide]

IC50 [1]: 2.64 nM
AUClast ([2]; IV, not fasting): 16723 ± 860 ng·h/mL
Cmax ([2]; IV, not fasting): 27167 ± 1299 ng/mL
T1/2 ([2]; IV, not fasting): 2.13 ± 0.25 h
AUClast ([2]; PO, fasting): 3638 ± 335 ng·h/mL
Cmax ([2]; PO, fasting): 1373 ± 162 ng/mL
T1/2 ([2]; PO, fasting): 2.21 ± 0.27 h
Compound: C[C@H](NC(=O)[C@H]1CC(C(F)(F)c2ccc(F)cc2)CN1)C(=O)N[C@@H]1CCc2nc(N)ccc21 (stereo partly drawn) [Compound L050, (2R)—N—((S)-1-(((R)-2-amino-6,7-dihydro-5H-cyclopenta[b]pyridin-5-yl)amino)-1-oxopropan-2-yl)-4-(difluoro (4-fluorophenyl)methyl) pyrrolidine-2-carboxamide]

IC50 [1]: 7 nM
Compound: Nc1ccc2c(n1)CC[C@H]2NC(=O)[C@H]1[C@H]2C[C@H]2CN1C(=O)[C@H]1C[C@H](Cc2ccc(F)cc2)CN1 [Compound L055-IS-02, (1S,2R,5R)—N—((R)-2-amino-6,7-dihydro-5H-cyclopenta [b]pyridin-5-yl)-3-((2R,4S)-4-(4-fluorobenzyl)pyrrolidine-2-carbonyl)-3-azabicyclo[3.1.0]hexane-2-carboxamide]

IC50 [1]: 17.6 nM
Compound: C[C@H](NC(=O)[C@@H]1C=C(c2ccc(F)c(C(F)(F)F)c2)CCN1)C(=O)N[C@@H]1CCc2nc(N)ccc21 [Compound L070-IS-02, (S)-N-((S)-1-(((R)-2-amino-6,7-dihydro-5H-cyclopenta[b]pyridin-5-yl)amino)-1-oxopropan-2-yl)-4-(4-fluoro-3-(trifluoromethyl)phenyl)-1,2,5,6-tetrahydropyridine-2-carboxamide]

Compound: C[C@H](NC(=O)[C@@H]1C=C(c2ccc(F)c(Cl)c2)CCN1)C(=O)N[C@@H]1CCc2nc(N)ccc21 [Compound L072-IS-02, (S)-N-((S)-1-(((R)-2-amino-6,7-dihydro-5H-cyclopenta[b]pyridin-5-yl)amino)-1-oxopropan-2-yl)-4-(3-chloro-4-fluorophenyl)-1,2,5,6-tetrahydropyridine-2-carboxamide]
IC50 [1]: 9.26 nM

IC50 [1]: 4.25 nM
Compound: C[C@H](NC(=O)[C@@H]1C=C(c2ccc(F)cc2C(F)(F)F)CCN1)C(=O)N[C@@H]1CCc2nc(N)ccc21 [Compound L073-IS-02, (S)-N-((S)-1-(((R)-2-amino-6,7-dihydro-5H-cyclopenta[b]pyridin-5-yl)amino)-1-oxopropan-2-yl)-4-(4-fluoro-2-(trifluoromethyl)phenyl)-1,2,5,6-tetrahydropyridine-2-carboxamide]

Compound: Cc1cc(F)ccc1C1=C[C@@H](C(=O)N[C@@H](C)C(=O)N[C@@H]2CCc3nc(N)ccc32)NCC1 [Compound L074-IS-02, (S)-N-((S)-1-(((R)-2-amino-6,7-dihydro-5H-cyclopenta[b]pyridin-5-yl)amino)-1-oxopropan-2-yl)-4-(4-fluoro-2-methylphenyl)-1,2,5,6-tetrahydropyridine-2-carboxamide]
IC50 [1]: 2.79 nM

Compound: C[C@H](NC(=O)[C@@H]1C=C(c2ccc(F)cc2Cl)CCN1)C(=O)N[C@@H]1CCc2nc(N)ccc21 [Compound L075-IS-02, (S)-N-((S)-1-(((R)-2-amino-6,7-dihydro-5H-cyclopenta[b]pyridin-5-yl)amino)-1-oxopropan-2-yl)-4-(2-chloro-4-fluorophenyl)-1,2,5,6-tetrahydropyridine-2-carboxamide]
IC50 [1]: 4.89 nM

Compound: C[C@H](NC(=O)[C@@H]1C=C(c2ccc(F)c(C(F)F)c2)CCN1)C(=O)N[C@@H]1CCc2nc(N)ccc21 [Compound L078-IS-02, (S)—N—((S)-1-(((R)-2-amino-6,7-dihydro-5H-cyclopenta[b]pyridin-5-yl)amino)-1-oxopropan-2-yl)-4-(3-(difluoromethyl)-4-fluorophenyl)-1,2,5,6-tetrahydropyridine-2-carboxamide]
IC50 [1]: 16.3 nM

Compound: C[C@H](NC(=O)[C@@H]1C=C(c2ccc(F)cc2CF)CCN1)C(=O)N[C@@H]1CCc2nc(N)ccc21 [Compound L079-IS-02, (S)—N—((S)-1-(((R)-2-amino-6,7-dihydro-5H-cyclopenta[b]pyridin-5-yl)amino)-1-oxopropan-2-yl)-4-(4-fluoro-2-(fluoromethyl)phenyl)-1,2,5,6-tetrahydropyridine-2-carboxamide]
IC50 [1]: 2.9 nM

Compound: C[C@H](NC(=O)[C@@H]1C=C(c2ccc(F)cc2C(F)F)CCN1)C(=O)N[C@@H]1CCc2nc(N)ccc21 [Compound L080-IS-02, (S)—N—((S)-1-(((R)-2-amino-6,7-dihydro-5H-cyclopenta[b]pyridin-5-yl)amino)-1-oxopropan-2-yl)-4-(2-(difluoromethyl)-4-fluorophenyl)-1,2,5,6-tetrahydropyridine-2-carboxamide]
IC50 [1]: 2.87 nM

Compound: C[C@H](NC(=O)[C@@H]1C=C(c2cccc(Cl)c2)CCN1)C(=O)N[C@@H]1CCc2nc(N)ccc21 [Compound L081-IS-02, (S)—N—((S)-1-(((R)-2-amino-6,7-dihydro-5H-cyclopenta[b]pyridin-5-yl)amino)-1-oxopropan-2-yl)-4-(3-chlorophenyl)-1,2,5,6-tetrahydropyridine-2-carboxamide]
IC50 [1]: 7.41 nM

IC50 [1]: 0.97 nM
Compound: Nc1ccc2c(n1)CC[C@H]2NC(=O)[C@@H]1C[C@@H]2C[C@@H]2N1C(=O)[C@H]1C[C@H](Cc2ccc(F)cc2)CN1 [Compound L104-IS-02, (1S,3S,5S)—N—((R)-2-amino-6,7-dihydro-5H-cyclopenta [b]pyridin-5-yl)-2-((2R,4S)-4-(4-fluorobenzyl)pyrrolidine-2-carbonyl)-2-azabicyclo[3.1.0]hexane-3-carboxamide]
